Experimental data published in patent US20140275197A1, “ALPHA-2 ADRENERGIC AGONIST FOR TREATING INTRAOCULAR PRESSURE AND OCULAR DISEASES THROUGH INTRAVITREAL AND INTRACAMERAL ROUTES” (priority 2013, published 2014).
“Also recorded” adds a separate entry of the source.

What was measured:
[1] = rat, in vivo, po; cited from earlier work
dutch belted rabbits [2] = experiment: Intraocular pressure lowering after intravitreal (IVT) injection at equimolar concentration; format: in vivo, rabbit
dutch belted rabbits [3] = experiment: Intraocular pressure lowering after bolus intracameral (IC) injection at equimolar concentration; format: in vivo, rabbit
From the text: Due to the chemical similarity and the pharmacokinetics profile of brimonidine, 4-bromo-N-imidazolidin-2-ylidene-1-H-benzimidazol-5-amine and dexmedetomidine, it would be expected for these molecules to have a similar behavior following intravitreal bolus injection into the back of the eye.

[4] = in vivo
[5] = cited from earlier work
[6] = increasing amount of brimonidine

Brc1c(N=C2NCCN2)ccc2[nH]cnc12 [4-bromo-N-imidazolidin-2-ylidene-1-H-benzimidazol-5-amine]
amount found in urine [1]: trace amounts
IOP decrease compared with brimonidine and dexmedetomidine (dutch belted rabbits [2]): more efficacious at decreasing IOP than brimonidine and dexmedetomidine; also recorded: outperforms brimonidine; also recorded: more potent and efficacious than brimonidine
potency versus brimonidine and dexmedetomidine (dutch belted rabbits [3]; administered intracamerally at equimolar concentration, normotensive rabbits): at least 50 fold
IOP decrease compared with brimonidine and dexmedetomidine (dutch belted rabbits [3]; bolus intracameral injection, equimolar concentration, rabbits): more efficacious at decreasing lop than brimonidine and dexmedetomidine; also recorded: outperforms brimonidine; also recorded: more effective than brimonidine and dexmedetomidine
level in the systemic circulation [4]: undetectable levels
time for which the level in the aqueous humor is maintained [4]: ≥ 8 h

Nc1cc(Cl)c(N=C2NCCN2)c(Cl)c1 [apraclonidine, 2,6-dichloro-N-imidazolidin-2-ylidene-benzene-1,4-diamine]
clearance from the aqueous humor ([5]; following topical dosing): rapidly cleared

Brc1c(NC2=NCCN2)ccc2nccnc12 [brimonidine, (5-bromo-quinoxalin-6-yl)-imidazolidin-2-ylidene-amine]
clearance from the aqueous humor ([5]; following topical dosing): rapidly cleared
passage through cornea and sclera ([5]; following topical dosing): readily pass through the cornea and sclera
effect of increasing the amount on half life in the aqueous humor [5, 6]: does not improve its half life
effect of increasing the amount on systemic exposure [5, 6]: increased systemic exposure
